Experimental data reported in patent US20050020665A1, “Pharmaceutical composition for treating multiple sclerosis” (priority 2001, published 2005).
Where two headings read alike, the source gives them in different places.

Legend:
[1] = tested on: inflammatory reactions of MS in the animal model; conditions: cited from earlier work
MS patients [2] = conditions: cited from earlier work
MS patients [3] = conditions: cited from earlier work; remark: listed apart in the source
[4] = tested on: experimental allergic encephalomyelitis (EAE); conditions: cited from earlier work
[5] = tested on: patients having clinically active MS; assay: treatment trial of MS patients with zileuton (Zyflo Filmtab), three years, with brain nuclear magnetic resonance using Magnevist; format: in vivo, humans
Experimental: 15 patients having clinically active MS were treated with zileuton in a treatment trial. 15 MS patients without this treatment served as a control. One tablet of Zyflo™Filmtab® was administered to each four times a day.

[6] = 15 MS patients, one Zyflo Filmtab tablet four times a day, three years, compared with 15 MS patients without this treatment

Structure (SMILES): O=C(O)c1cc(/N=N/c2ccc(S(=O)(=O)Nc3ccccn3)cc2)ccc1O [azulfidine]
- effect in the animal model (suppression of inflammatory reactions of MS) [1]: successful in the animal model
- effect of treatment in MS patients (MS patients [2]; first 18 months of treatment, double blind study): exceptionally beneficial effect could be proven
- effect of treatment in MS patients (MS patients [2]; three years after the end of the study): this effect could no longer be proven

Structure (SMILES): Cn1cnc([N+](=O)[O-])c1Sc1ncnc2[nH]cnc12 [azothioprin]
- effect in the treatment of MS patients (MS patients [3]): not convincing
- effect in the EAE animal test [4]: showed promising indications

Structure (SMILES): CC(c1cc2ccccc2s1)N(O)C(N)=O (centres unmarked) [zileuton, 1-(1-benzo[b]thien-2-ylethyl)-1-hydroxy urea]
- chronic progression [5, 6]: significantly decreased
- frequency of attacks [5, 6]: significantly decreased
- new or acute centres of inflammation absorbing the contrast agent (brain nuclear magnetic resonance) ([5]; every six months, contrast agent Magnevist): No new or acute centres absorbing the contrast agent could be determined
